How the values were obtained:
rice GSNOR = biological target: T1, rice GSNOR (Oryza sativa, UniProt Q0DWH1); test: surface plasmon resonance (OpenSPR); format: binding
T1 construct: gene Os02g0815500

GSNOR (M. oryzae) = biological target: T2, GSNOR (M. oryzae) (Pyricularia oryzae, UniProt G4N4N6); test: biochemical
T2 construct: gene MGG_06011
T2 sequence (G4N4N6 1-381): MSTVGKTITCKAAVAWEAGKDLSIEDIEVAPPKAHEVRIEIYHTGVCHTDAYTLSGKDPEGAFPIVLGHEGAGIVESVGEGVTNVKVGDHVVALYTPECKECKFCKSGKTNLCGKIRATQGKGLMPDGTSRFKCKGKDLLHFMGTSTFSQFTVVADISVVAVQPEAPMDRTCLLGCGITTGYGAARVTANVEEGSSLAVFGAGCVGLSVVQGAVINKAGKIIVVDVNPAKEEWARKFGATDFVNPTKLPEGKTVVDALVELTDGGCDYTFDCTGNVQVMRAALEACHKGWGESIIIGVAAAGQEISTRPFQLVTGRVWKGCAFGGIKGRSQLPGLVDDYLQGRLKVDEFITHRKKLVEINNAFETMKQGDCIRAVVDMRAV

T1 sequence (Q0DWH1 whole entry): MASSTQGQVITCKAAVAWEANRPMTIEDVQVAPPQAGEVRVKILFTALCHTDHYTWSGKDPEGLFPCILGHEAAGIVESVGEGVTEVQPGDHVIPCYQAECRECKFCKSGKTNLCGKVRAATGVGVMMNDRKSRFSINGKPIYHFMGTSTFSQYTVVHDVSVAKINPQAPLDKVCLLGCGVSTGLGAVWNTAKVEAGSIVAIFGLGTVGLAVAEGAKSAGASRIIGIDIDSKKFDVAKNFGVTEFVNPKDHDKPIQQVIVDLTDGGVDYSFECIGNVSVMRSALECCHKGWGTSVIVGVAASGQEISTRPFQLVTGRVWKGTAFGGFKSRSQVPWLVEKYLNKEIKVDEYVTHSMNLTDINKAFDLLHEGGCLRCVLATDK

Compound `Cc1cc(C(N)=O)ccc1-n1c(CCC(=O)O)ccc1-c1ccc(-n2ccnc2)cc1` [N6022] has a Kd (rice GSNOR) of 288 µM and a Kd (GSNOR (M. oryzae)) of 55.8 µM.
